# Test results as given in ChEMBL document CHEMBL5634096, “Design, synthesis and bioevaluation of PI3Kα-selective inhibitors as potential colorectal cancer drugs” (Eur J Med Chem, 2023).
# The source made the active and inactive calls. The calls are words filed in the database; no cut-off is given here.
# Assays:
# [1] = biological target: Phosphatidylinositol 4,5-bisphosphate 3-kinase catalytic subunit gamma isoform (Homo sapiens, UniProt P48736); assay: Inhibition of PI3Kgamma (unknown origin) by ADP-Glo luminescent kinase assay
# HepG2 = assay: Antiproliferative activity against human HepG2 cells assessed as reduction in cell viability at 10 uM incubated for 24 to 48 hrs by CCK-8 assay; type: functional, cell-based; conditions: time lower […], time upper 48.0 hrs
# A673 = assay: Antiproliferative activity against human A673 cells assessed as reduction in cell viability at 10 uM incubated for 24 to 48 hrs by CCK-8 assay; type: functional, cell-based; conditions: time lower […], time upper 48.0 hrs
# HCT-116 [2] = assay: Induction of apoptosis in human HCT-116 cells assessed as increased total apoptotic cells at 12 uM incubated for 48 hrs by Annexin V-FITC and propidium iodide staining based flow cytometry analysis (reference value: 4.22 %); type: functional
# HCT-116 [3] = assay: Inhibition of cell invasion human HCT-116 cells incubated for 48 hrs by crystal violet staining based transwell assay; type: functional; conditions: dose 3-12 µM
# [4] = Volume of distribution in Sprague-Dawley rat at 5 mg/kg, iv measured upto 24 hrs by LC-MS analysis; type: ADME, organism-based; conditions: in vivo
# Sequence of Phosphatidylinositol 4,5-bisphosphate 3-kinase catalytic subunit gamma isoform (P48736 whole entry, canonical isoform): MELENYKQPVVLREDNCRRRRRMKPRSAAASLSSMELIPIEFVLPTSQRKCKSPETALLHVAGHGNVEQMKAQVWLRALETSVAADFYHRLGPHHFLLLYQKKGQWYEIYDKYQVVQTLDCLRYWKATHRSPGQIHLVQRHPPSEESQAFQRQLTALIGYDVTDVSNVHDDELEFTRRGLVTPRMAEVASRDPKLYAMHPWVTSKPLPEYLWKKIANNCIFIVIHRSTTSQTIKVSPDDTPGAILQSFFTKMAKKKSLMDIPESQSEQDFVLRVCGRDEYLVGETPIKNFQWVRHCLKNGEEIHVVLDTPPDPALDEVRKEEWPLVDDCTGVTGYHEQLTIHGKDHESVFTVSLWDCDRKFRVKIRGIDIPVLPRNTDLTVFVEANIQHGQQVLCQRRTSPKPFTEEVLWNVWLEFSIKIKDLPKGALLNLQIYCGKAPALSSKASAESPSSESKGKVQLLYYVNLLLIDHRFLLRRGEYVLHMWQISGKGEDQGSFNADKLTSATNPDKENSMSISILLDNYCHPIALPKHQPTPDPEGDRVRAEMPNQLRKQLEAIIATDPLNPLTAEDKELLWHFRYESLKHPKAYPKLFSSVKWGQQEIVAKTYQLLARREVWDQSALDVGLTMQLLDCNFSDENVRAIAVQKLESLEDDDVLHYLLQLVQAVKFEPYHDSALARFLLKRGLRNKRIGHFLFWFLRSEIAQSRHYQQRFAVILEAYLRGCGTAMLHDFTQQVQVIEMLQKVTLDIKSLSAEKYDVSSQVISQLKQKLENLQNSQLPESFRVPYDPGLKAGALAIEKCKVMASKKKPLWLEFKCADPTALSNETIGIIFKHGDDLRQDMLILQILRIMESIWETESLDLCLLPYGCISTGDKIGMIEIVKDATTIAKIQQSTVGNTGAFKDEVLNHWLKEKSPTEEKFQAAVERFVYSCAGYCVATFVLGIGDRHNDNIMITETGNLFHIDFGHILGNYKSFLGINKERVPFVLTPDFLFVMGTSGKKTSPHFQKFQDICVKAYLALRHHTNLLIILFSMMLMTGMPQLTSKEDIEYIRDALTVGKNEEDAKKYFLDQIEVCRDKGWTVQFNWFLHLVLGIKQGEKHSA
smiles,measurement,setting,value
Nc1nc2cc(-c3ccc4ncc(N5C[C@@H]6OCCO[C@@H]6C5)nc4c3)ccc2o1,IC50,[1],200 nM
same,Activity,HepG2,Active
same,Activity,A673,Active
same,Activity,HCT-116 [2],27.03%
same,inhibition,HCT-116 [3],Dose-Dependent Effect
same,Vd,[4],5.2 L/kg
